From PubChem BioAssay (NCI)
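A five-concentration, 48-hour dose response in 96-well plates underlies each endpoint, interpolated linearly between surrounding concentrations. Definition used: TGI = concentration required for complete inhibition of growth.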

Tests used:
Assay in all cases: growth of human tumour cells (NCI), 48 h
[1] = tested on: SF-539 CNS
[2] = tested on: M14 melanoma
[3] = tested on: CAKI-1 renal
[4] = tested on: LOX IMVI melanoma
[5] = tested on: HL-60(TB) leukemia
[6] = tested on: NCI-H226 lung
[7] = tested on: HCT-116 colon
[8] = tested on: UO-31 renal
[9] = tested on: U251 CNS
[10] = tested on: SK-MEL-5 melanoma
[11] = tested on: SN12C renal
[12] = tested on: OVCAR-4 ovarian
[13] = tested on: A549 NSCLC
[14] = tested on: MCF7 breast
[15] = tested on: DU-145 prostate
[16] = tested on: SNB-19 CNS
[17] = tested on: T-47D breast
[18] = tested on: OVCAR-3 ovarian
[19] = tested on: OVCAR-5 ovarian
[20] = tested on: PC-3 prostate
[21] = tested on: EKVX NSCLC
[22] = tested on: IGROV1 ovarian
[23] = tested on: HCT-15 colon
[24] = tested on: SK-MEL-28 melanoma
[25] = tested on: NCI/ADR-RES ovarian
[26] = tested on: MALME-3M melanoma
[27] = tested on: A498 renal
[28] = tested on: NCI-H460 lung
[29] = tested on: SR leukemia
[30] = tested on: BT-549 breast
[31] = tested on: HOP-62 NSCLC
[32] = tested on: SK-MEL-2 melanoma
[33] = tested on: HOP-92 NSCLC
[34] = tested on: NCI-H23 lung
[35] = tested on: MOLT-4 leukemia
[36] = tested on: HS 578T breast
[37] = tested on: HT29 colon
[38] = tested on: ACHN renal
[39] = tested on: UACC-62 melanoma
[40] = tested on: SF-295 CNS
[41] = tested on: MDA-MB-435
[42] = tested on: UACC-257 melanoma
[43] = tested on: SK-OV-3 ovarian
[44] = tested on: SNB-75 CNS
[45] = tested on: MDA-N
[46] = tested on: COLO 205 colon
[47] = tested on: CCRF-CEM leukemia
[48] = tested on: HCC-2998 colon
[49] = tested on: MDA-MB-231 breast
[50] = tested on: 786-0 renal
[51] = tested on: RXF 393 renal
[52] = tested on: OVCAR-8 ovarian
[53] = tested on: SW-620 colon
[54] = tested on: KM12 colon
[55] = tested on: NCI-H522 lung
[56] = tested on: SF-268 CNS
[57] = tested on: TK-10 renal
[58] = tested on: M19-MEL melanoma
[59] = tested on: DMS 273 small cell lung
[60] = tested on: SNB-78 CNS
[61] = tested on: HOP-18 NSCLC
[62] = tested on: K-562 leukemia
[63] = tested on: DMS 114 small cell lung
[64] = tested on: KM20L2 colon
[65] = tested on: LXFL 529 NSCLC
[66] = tested on: DLD-1 colon
[67] = tested on: RPMI-8226 leukemia
[68] = tested on: XF 498 CNS

Measured: TGI

Cc1cc(O)c(/C=N/C(=S)NCc2ccccc2)c(=O)o1
not listed: [58] | [59] | [60] | [61] | [62] | [63] | [64] | [65] | [66] | [67] | [68]
> 100 µM: all other assays above

CCCCCCN(CCCCCC)C(=O)Cc1c2n(c3ccccc13)Cc1ccccc1-2
46.4 µM: [5]
82 µM: [63]
90.1 µM: [47]
79.7 µM: [33]
not listed: [14] | [15] | [17] | [19] | [20] | [22] | [25] | [27] | [30] | [36] | [41] | [45] | [49] | [68]
> 100 µM: all other assays above

C[Si](C)(C)C1(Sc2ccccc2)SCCCS1
76.4 µM: [31]
75.2 µM: [1]
33.3 µM: [5]
39.8 µM: [8]
85.1 µM: [35]
68.6 µM: [55]
77.8 µM: [47]
not listed: [6] | [14] | [15] | [17] | [20] | [25] | [29] | [30] | [36] | [41] | [45] | [49] | [61] | [64]
> 100 µM: all other assays above
